Results from US10710996B2, “Pyrido-azaheterecydic compound and preparation method and use thereof” (SHANGHAI INSTITUTE OF MATERIA MEDICA, CHINESE ACADEMY OF …, priority 2015, dated 2020).
pIC50: −log10 of the molar value.

Biological target: T1, c-Met kinase (Homo sapiens, UniProt P08581)
T1 construct: c-Met kinase domain recombinant protein diluted with 49 μL of the reaction buffer was added
Test: Inhibitory effect on c-Met kinase activity at molecular level (ELISA);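 further: recombinant c-Met kinase domain with 5 µM ATP, 1 h at 37 °C, substrate phosphorylation detected by anti-phosphotyrosine PY99 ELISA at 490 nm versus DMSO negative control, ATP-free wells as blank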
Assay type: biochemical

T1 sequence (P08581 1078-1345 limits assumed): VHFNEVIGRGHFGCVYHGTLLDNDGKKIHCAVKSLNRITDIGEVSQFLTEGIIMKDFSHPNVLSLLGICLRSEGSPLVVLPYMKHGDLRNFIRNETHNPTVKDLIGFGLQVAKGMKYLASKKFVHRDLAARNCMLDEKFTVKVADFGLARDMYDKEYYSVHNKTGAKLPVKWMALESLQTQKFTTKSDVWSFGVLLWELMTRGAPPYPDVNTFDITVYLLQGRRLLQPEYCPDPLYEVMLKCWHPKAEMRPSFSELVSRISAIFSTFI

Row | SMILES | pIC50
1 | O=C(Nc1ccc(F)cc1)C1(C(=O)Nc2ccc(Oc3ccnc4[nH]c(=O)cnc34)c(F)c2)CC1 [Compound 33S, N-(3-fluoro-4-((3-oxo-3,4-dihydropyrido [2,3-b]pyrazin-8-yl)oxy)phenyl)-N-(4-fluorophenyl)cyclopropyl-1,1-dicarboxamide] | 6.00 to 7.00
2 | O=C(Cc1ccccc1)Nc1ccc(Oc2ccnc3c(Br)c(OCCN4CCOCC4)ncc23)c(F)c1 [Compound 18S, N-(4-((8-bromo-7-(2-morpholinoethoxy)-1,6-naphthyridin-4-yl)oxy)-3-fluorophenyl)-2-phenylacetamide] | 6.00 to 7.00
3 | O=C(Nc1ccc(F)cc1)C1(C(=O)Nc2ccc(Oc3ccnc4ncc(=O)[nH]c34)c(F)c2)CC1 [Compound 34S, N-(3-fluoro-4-((2-oxo-1,2-dihydropyrido [2,3-b]pyrazin-8-yl)oxy)phenyl)-N-(4-fluorophenyl)cyclopropyl-1,1-dicarboxamide] | 6.00 to 7.00
4 | Nc1ccc(Oc2ccnc3c(Br)c(OCCN4CCOCC4)ncc23)c(F)c1 [Compound 4S, 4-((8-bromo-7-(2-morpholinoethoxy)-1,6-naphthyridin-4-yl)oxy)-3-fluoroaniline] | 5.00 to 6.00
5 | O=C(Nc1ccc(F)cc1)C1(C(=O)Nc2ccc(Oc3ccnc4cc(-c5ccsn5)ncc34)c(F)c2)CC1 [Compound 52S] | 6.00 to 7.00
6 | CN(C(=O)C1(C(=O)Nc2ccc(Oc3ccnc4cc(OCCN5CCOCC5)ncc34)c(F)c2)CC1)c1ccc(F)cc1 [Compound 14S, N-(3-fluoro-4-((7-(2-morpholinoethoxy)-1,6-naphthyridin-4-yl)oxy)phenyl)-N-(4-fluorophenyl)-N-methylcyclopropyl-1,1-dicarboxamide] | 6.00 to 7.00
7 | O=C(COc1cc2nccc(Oc3ccc(NC(=O)C4(C(=O)Nc5ccc(F)cc5)CC4)cc3F)c2cn1)N1CCOCC1 [Compound 36S, N-(3-fluoro-4-((7-(2-morpholino-2-acetoxy)-1,6-naphthyridin-4-yl)oxy)phenyl)-N-(4-fluorophenyl)cyclopropyl-1,1-dicarboxamide] | 7.00 to 8.00
8 | O=C(Nc1ccc(F)cc1)C1(C(=O)Nc2ccc(Oc3ccnc4nc(OCCCN5CCOCC5)cnc34)c(F)c2)CC1 [Compound 61S, N-(3-fluoro-4-((3-(3-morpholinopropoxy)pyrido[2,3-b]pyrazin-8-yl)oxy)phenyl)-N-(4-fluorophenyl)cyclopropyl-1,1-dicarboxamide] | 7.00 to 8.00
9 | O=C(Nc1ccc(F)cc1)C1(C(=O)Nc2ccc(Oc3ccnc4cc(N5CCN(Cc6ccccc6)CC5)ncc34)c(F)c2)CC1 [Compound 32S, N-(4-((7-(4-benzylpiperazin-1-yl)-naphthyridin-4-yl)oxy)-3-fluorophenyl)-N-(4-fluorophenyl)cyclopropyl-1,1-dicarboxamide] | 7.00 to 8.00
10 | O=C(Nc1ccc(F)cc1)C1(C(=O)Nc2ccc(Oc3ccnc4cc(-c5ccc(N6CCOCC6)cc5)ncc34)c(F)c2)CC1 [Compound 50S, N-(3-fluoro-4-((7-(4-morpholinophenyl)-1,6-naphthyridin-4-yl)oxy)phenyl)-N-(4-fluorophenyl)cyclopropyl-1,1-dicarboxamide] | 7.00 to 8.00
11 | CN1CCN(CCOc2ncc3c(Oc4ccc(NC(=O)C5(C(=O)Nc6ccc(F)cc6)CC5)cc4F)ccnc3c2Br)CC1 [Compound 10S, N-(4-((8-bromo-7-(2-(4-methylpiperazin-1-yl)ethoxy)-1,6-naphthyridin-4-yl)oxy)-3-fluorophenyl)-N-(4-fluorophenyl) cyclopropyl-1,1-dicarboxamide] | 7.00 to 8.00
12 | O=C(Nc1ccc(Oc2ccnc3c(Br)c(OCCN4CCOCC4)ncc23)c(F)c1)c1c[nH]cc(-c2ccccc2)c1=O [Compound 19S, N-(4-((8-bromo-7-(2-morpholinoethoxy)-1,6-naphthyridin-4-yl)oxy)-3-fluorophenyl)-4-oxo-5-phenyl-1,4-dihydropyridine-3-carboxamide] | 7.00 to 8.00

More lines, now with the values ahead:

Row | pIC50 | SMILES
13 | 7.00 to 8.00 | Cn1cc(-c2cc3nccc(Oc4ccc(NC(=O)c5cccn(-c6ccc(F)cc6)c5=O)cc4F)c3cn2)cn1 [Compound 53S, N-(3-fluoro-4-((7-(1-methyl-1H-pyrazol-4-yl)-1,6-naphthyridin-4-yl)oxy)phenyl)-1-(4-fluorophenyl)-2-oxo-1,2-dihydropyridine-3-carboxamide]
14 | 7.00 to 8.00 | C[C@@H]1COCCN1CCOc1cc2nccc(Oc3ccc(NC(=O)C4(C(=O)Nc5ccc(F)cc5)CC4)cc3F)c2cn1 [Compound 30S, (R)-N-(3-fluoro-4-((7-(2-(3-methylmorpholino)ethoxy)-naphthyridin-4-yl)oxy)phenyl)-N-(4-fluorophenyl) cyclopropyl-1,1-dicarboxamide]
15 | 7.00 to 8.00 | O=C(Nc1ccc(F)cc1)c1cccn(-c2ccc(Oc3ccnc4cc(OCCN5CCOCC5)ncc34)c(F)c2)c1=O [Compound 16S, 1-(3-fluoro-4-((7-(2-morpholinoethoxy)-1,6-naphthyridin-4-yl)oxy)phenyl)-N-(4-fluorophenyl)-2-oxo-1,2-dihydropyridine-3-carboxamide]
16 | 7.00 to 8.00 | C[C@H]1COCCN1CCOc1cc2nccc(Oc3ccc(NC(=O)C4(C(=O)Nc5ccc(F)cc5)CC4)cc3F)c2cn1 [Compound 29S, (S)-N-(3-fluoro-4-((7-(2-(3-methylmorpholino)ethoxy)-naphthyridin-4-yl)oxy)phenyl)-N-(4-fluorophenyl) cyclopropyl-1,1-dicarboxamide]
17 | 7.00 to 8.00 | O=C(Nc1ccc(F)cc1)C1(C(=O)Nc2ccc(Oc3ccnc4cc(OCCn5ccnc5)ncc34)c(F)c2)CC1 [Compound 31S, N-(4-((7-(2-(1H-imidazol-1-yl)ethoxy)-naphthyridin-4-yl)oxy)-3-fluorophenyl)-N-(4-fluorophenyl)cyclopropyl-1,1-dicarboxamide]
18 | 7.00 to 8.00 | O=C(Nc1ccc(F)cc1)C1(C(=O)Nc2ccc(Oc3ccnc4cc(N5CCC(N6CCOCC6)CC5)ncc34)c(F)c2)CC1 [Compound 28S, N-(3-fluoro-4-((7-(4-morpholinopiperidin-1-yl)--naphthyridin-4-yl)oxy)phenyl)-N-(4-fluorophenyl)cyclopropyl-1,1-dicarboxamide]
19 | 8.00 to 9.00 | COC(=O)c1cccn(-c2ccc(Oc3ccnc4cc(OCCN5CCOCC5)ncc34)c(F)c2)c1=O [Compound 17S, methyl 1-(3-fluoro-4-((7-(2-morpholinoethoxy)-1,6-naphthyridin-4-yl)oxy)phenyl)-2-oxo-1,2-dihydropyridine-3-carboxylate]
20 | 8.00 to 9.00 | O=C(Nc1ccc(F)cc1)C1(C(=O)Nc2ccc(Oc3ccnc4cc(-c5cnoc5)ncc34)c(F)c2)CC1 [Compound 51S]
21 | 7.00 to 8.00 | O=C(Nc1ccc(F)cc1)C1(C(=O)Nc2ccc(Oc3ccnc4cc(-c5ccc([N+](=O)[O-])cc5)ncc34)c(F)c2)CC1 [Compound 48S, N-(3-fluoro-4-((7-(4-nitrophenyl)-1,6-naphthyridin-4-yl)oxy)phenyl)-N-(4-fluorophenyl)cyclopropyl-1,1-dicarboxamide]
22 | 7.00 to 8.00 | O=C(Nc1ccc(F)cc1)C1(C(=O)Nc2ccc(Oc3ccnc4cc(N5CCOCC5)ncc34)c(F)c2)CC1 [Compound 27S, N-(3-fluoro-4-((7-morpholino-1,6-naphthyridin-4-yl)oxy)phenyl)-N-(4-fluorophenyl)cyclopropyl-1,1-dicarboxamide]
